Results on 62 molecules are retold here after patent US8653087B2, “Pyrido [5, 4-D] pyrimidines as cell proliferation inhibitors” (Boehringer Ingelheim International GmbH, priority 2008, dated 2014).

The target of this experiment is B-Raf (V600E)-kinase (Homo sapiens (Human), UniProt P15056, V600E). The experiment is described as follows: Kinase test B-RAF (V600E). It counts as biochemical. Conditions: B-RAF (V600E) kinase test, 250 μM ATP. The procedure, abridged: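 Read-out is DELFIA europium TRF of phospho-MEK (Ser217/221) on biotinylated MEK1 bound to streptavidin plates, IC50 from dose-response. Reaction ran 60 min at RT with 250 μM ATP, after a 24 h RT preincubation of compound with B-Raf (V600E) kinase, 5% DMSO final.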
Chain of B-Raf (V600E)-kinase (P15056 whole entry V600E): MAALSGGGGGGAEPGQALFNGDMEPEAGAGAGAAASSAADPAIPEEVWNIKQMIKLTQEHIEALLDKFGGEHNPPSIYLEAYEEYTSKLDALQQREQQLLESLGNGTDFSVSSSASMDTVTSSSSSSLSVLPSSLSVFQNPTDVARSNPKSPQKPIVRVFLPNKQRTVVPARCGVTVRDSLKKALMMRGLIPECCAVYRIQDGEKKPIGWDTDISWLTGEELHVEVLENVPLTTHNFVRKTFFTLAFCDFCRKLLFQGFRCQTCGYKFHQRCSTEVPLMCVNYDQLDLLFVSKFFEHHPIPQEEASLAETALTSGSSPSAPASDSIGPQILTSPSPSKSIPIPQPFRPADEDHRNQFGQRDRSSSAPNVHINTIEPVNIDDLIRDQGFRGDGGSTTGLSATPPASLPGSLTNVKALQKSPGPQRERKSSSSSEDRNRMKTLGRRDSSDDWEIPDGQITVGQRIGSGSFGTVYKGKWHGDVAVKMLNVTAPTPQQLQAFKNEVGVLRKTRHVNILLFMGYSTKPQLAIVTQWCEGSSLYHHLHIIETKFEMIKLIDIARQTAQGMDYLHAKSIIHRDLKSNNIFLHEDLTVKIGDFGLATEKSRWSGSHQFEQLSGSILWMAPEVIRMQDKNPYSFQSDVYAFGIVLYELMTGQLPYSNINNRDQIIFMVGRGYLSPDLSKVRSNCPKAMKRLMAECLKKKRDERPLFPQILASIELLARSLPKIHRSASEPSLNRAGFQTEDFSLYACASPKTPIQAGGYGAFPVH

Usually IC50 stands for the concentration that inhibits the measured activity by half. Low values mean higher potency, high ones lower potency. Regarding `COc1ccc(NC(=O)c2ccc(F)c(Nc3ncnc4cnc(N5CCN(C(C)C)CC5)nc34)c2)cc1C(F)(F)F` [III-403], the IC50 was 3 nM. In other words, the single-digit nanomolar range.

In turn, `COc1ccc(NC(=O)c2ccc(F)c(Nc3ncnc4cnc(N5CCN(CC6CC6)CC5)nc34)c2)cc1C(F)(F)F` [III-404] gave an IC50 of 6 nM.

In the case of `CCN1CCN(c2ncc3ncnc(Nc4cc(C(=O)Nc5ccc(OC)c(C(F)(F)F)c5)ccc4F)c3n2)CC1` [III-405], inhibition was half-maximal at 5 nM (IC50). The IC50 values of the last two molecules are within 1.5-fold of each other. In the case of `Cc1ccc(C(=O)Nc2cc(N(C)CCN(C)C)cc(C(F)(F)F)c2)cc1Nc1ncnc2cnc(N(C)CC3CCCCO3)nc12` (centres unmarked) [III-407] it was 10 nM; in that of `CCN1CCN(c2cc(NC(=O)c3ccc(C)c(Nc4ncnc5cnc(N(C)CC6CCCCO6)nc45)c3)cc(C(F)(F)F)c2)CC1` (centres unmarked) [III-408], 25 nM.

`COc1ccc(NC(=O)c2ccc(C)c(Nc3ncnc4cnc(N(C)CC5CCCCO5)nc34)c2)cc1C(F)(F)F` (centres unmarked) [III-409]: the IC50 was 9 nM. The same measure for `Cc1ccc(C(=O)Nc2cccc(OC(F)(F)F)c2)cc1Nc1ncnc2cnc(N3CCOCC3)nc12` [III-410]: 1 nM; for `COc1ccc(NC(=O)c2ccc(C)c(Nc3ncnc4cnc(N5CC[C@H](F)C5)nc34)c2)cc1C(F)(F)F` [III-411]: 3 nM. As to `Cc1ccc(C(=O)Nc2cc(C(C)(C)C)on2)cc1Nc1ncnc2cnc(N3CC[C@H](F)C3)nc12` [III-412], the midpoint of inhibition, the IC50, lay at 5 nM. This IC50 lies about 1.7-fold higher than the previous one. In the case of `COc1ccc(C(F)(F)F)cc1NC(=O)c1ccc(C)c(Nc2ncnc3cnc(N4CCN(CC5CCN(C)CC5)CC4)nc23)c1` [III-413] it was under 1 nM; in that of `Cc1ccc(C(=O)Nc2cc(C(C)(C)C)nn2C)cc1Nc1ncnc2cnc(N3CCN(CC4CCN(C)CC4)CC3)nc12` [III-414], 7 nM.

As to `COc1ccc(C(C)(C)C)cc1NC(=O)c1ccc(C)c(Nc2ncnc3cnc(N4CCN(CC5CCN(C)CC5)CC4)nc23)c1` [III-415], inhibition was half-maximal at 3 nM (IC50). This IC50 lies about 2.3-fold lower than the previous one. The same measure for `Cc1ccc(C(=O)Nc2cccc(C(C)(C)C)c2)cc1Nc1ncnc2cnc(N3CCN(CC4CCN(C)CC4)CC3)nc12` [III-416]: 1 nM; for `Cc1ccc(C(=O)Nc2cccc(C(F)(F)F)c2)cc1Nc1ncnc2cnc(N3CCN(CC4CCN(C)CC4)CC3)nc12` [III-417]: under 1 nM.

The molecule `Cc1ccc(C(=O)Nc2cc(C(C)(C)C)n[nH]2)cc1Nc1ncnc2cnc(N3CCN(CC4CCN(C)CC4)CC3)nc12` [III-418] came in with an IC50 of 2 nM. In the case of `COc1ccc(NC(=O)c2ccc(C)c(Nc3ncnc4cnc(N5CCN(CC6CCN(C)CC6)CC5)nc34)c2)cc1C(F)(F)F` [III-419] it was 1 nM; in that of `Cc1ccc(C(=O)Nc2cc(C(C)(C)C)on2)cc1Nc1ncnc2cnc(N3CCN(CC4CCN(C)CC4)CC3)nc12` [III-420], 1 nM; in that of `COCCN1CCN(c2ncc3ncnc(Nc4cc(C(=O)Nc5cc(C(C)(C)C)nn5C)ccc4C)c3n2)CC1` [III-421], 12 nM. On to `COCCN1CCN(c2ncc3ncnc(Nc4cc(C(=O)Nc5cc(C(C)(C)C)ccc5OC)ccc4C)c3n2)CC1` [III-422], for which half-maximal inhibition (IC50) was put at 5 nM. The same measure for `COCCN1CCN(c2ncc3ncnc(Nc4cc(C(=O)Nc5cccc(C(F)(F)F)c5)ccc4C)c3n2)CC1` [III-423]: under 1 nM. The same measure for `CCN1CCN(c2cc(NC(=O)c3ccc(C)c(Nc4ncnc5cnc(N6CCN(CCOC)CC6)nc45)c3)cc(C(F)(F)F)c2)CC1` [III-424]: 6 nM. The same measure for `COCCN1CCN(c2ncc3ncnc(Nc4cc(C(=O)Nc5cc(C(C)(C)C)n[nH]5)ccc4C)c3n2)CC1` [III-425]: 7 nM; for `COCCN1CCN(c2ncc3ncnc(Nc4cc(C(=O)Nc5cc(C(F)(F)F)ccn5)ccc4C)c3n2)CC1` [III-426]: under 1 nM; for `COCCN1CCN(c2ncc3ncnc(Nc4cc(C(=O)Nc5ccc(OC)c(C(F)(F)F)c5)ccc4C)c3n2)CC1` [III-427]: 2 nM.

With `Cc1ccc(C(=O)Nc2cccc(C(C)(C)C)c2)cc1Nc1ncnc2cnc(NCc3ccccc3)nc12` [III-428], the IC50 was under 1 nM. In the case of `Cc1ccc(C(=O)Nc2cc(C(C)(C)C)nn2C)cc1Nc1ncnc2cnc(NCc3ccccc3)nc12` [III-429] it was 2 nM; in that of `Cc1ccc(C(=O)Nc2cccc(C(C)(C)C#N)c2)cc1Nc1ncnc2cnc(NCc3ccccc3)nc12` [III-430], 7 nM. In the case of `COc1ccc(NC(=O)c2ccc(C)c(Nc3ncnc4cnc(N5C[C@H]6C[C@@H]5CN6C)nc34)c2)cc1C(F)(F)F` [III-431] it was 3 nM.

In turn, `COc1ccc(NC(=O)c2ccc(C)c(Nc3ncnc4cnc(N5CCN(CC6CCOC6)CC5)nc34)c2)cc1C(F)(F)F` (centres unmarked) [III-432] showed an IC50 of 6 nM.

The molecule `COc1ccc(NC(=O)c2ccc(C)c(Nc3ncnc4cnc(N5CCN(C6CC6)CC5)nc34)c2)cc1C(F)(F)F` [III-433] returned an IC50 of 7 nM. In the case of `COc1ccc(NC(=O)c2ccc(C)c(Nc3ncnc4cnc(N5CCC(N(C)C)CC5)nc34)c2)cc1C(F)(F)F` [III-435] it was 1 nM. In the case of `COc1ccc(NC(=O)c2ccc(C)c(Nc3ncnc4cnc(N5C[C@@H](C)N[C@@H](C)C5)nc34)c2)cc1C(F)(F)F` [III-436] it was 2 nM. The same measure for `COc1ccc(NC(=O)c2ccc(C)c(Nc3ncnc4cnc(N5CCN(C(C)C)CC5)nc34)c2)cc1C(F)(F)F` [III-437]: 2 nM. `Cc1ccc(C(=O)Nc2cc(N(C)CCN(C)C)cc(C(F)(F)F)c2)cc1Nc1ncnc2cnc(N3CC[C@H](F)C3)nc12` [III-438] displayed an IC50 of 6 nM. This IC50 lies about 3-fold higher than the previous one. In the case of `CCN1CCN(c2cc(NC(=O)c3ccc(C)c(Nc4ncnc5cnc(N6CC[C@H](F)C6)nc45)c3)cc(C(F)(F)F)c2)CC1` [III-439] it was 4 nM.

As to `Cc1ccc(C(=O)Nc2cc(N(C)CCN(C)C)cc(C(F)(F)F)c2)cc1Nc1ncnc2cnc(N3CCCC3)nc12` [III-440], the IC50 stood at 272 nM. The same measure for `CCN1CCN(c2cc(NC(=O)c3ccc(C)c(Nc4ncnc5cnc(N6CCOCC6)nc45)c3)cc(C(F)(F)F)c2)CC1` [III-441]: 2 nM. Take `Cc1ccc(C(=O)Nc2cc(N(C)CCN(C)C)cc(C(F)(F)F)c2)cc1Nc1ncnc2cnc(N3CCOCC3)nc12` [III-442]: the IC50 worked out at 1 nM.

`COc1ccc(NC(=O)c2ccc(C)c(Nc3ncnc4cnc(N5CCCN(C)CC5)nc34)c2)cc1C(F)(F)F` [III-443] yielded an IC50 of 1 nM. In the case of `COc1ccc(NC(=O)c2ccc(C)c(Nc3ncnc4cnc(N5CCN(CC(C)C)CC5)nc34)c2)cc1C(F)(F)F` [III-444] it was 4 nM; in that of `COc1ccc(NC(=O)c2ccc(C)c(Nc3ncnc4cnc(N5CCCC5)nc34)c2)cc1C(F)(F)F` [III-445], 2 nM. `Cc1ccc(C(=O)Nc2cc(C(C)(C)C)n[nH]2)cc1Nc1ncnc2cnc(N3CCCN(C)CC3)nc12` [III-446] yielded an IC50 of 6 nM.

Molecule `Cc1ccc(C(=O)Nc2cc(C(C)(C)C)n[nH]2)cc1Nc1ncnc2cnc(N3CCN(CC(C)C)CC3)nc12` [III-447] displayed an IC50 of 13 nM. The same measure for `Cc1ccc(C(=O)Nc2cc(C(C)(C)C)n[nH]2)cc1Nc1ncnc2cnc(N3CCN(C)CC3)nc12` [III-448]: 8 nM; for `Cc1ccc(C(=O)Nc2cc(C(F)(F)F)ccn2)cc1Nc1ncnc2cnc(N3CCN(CC(C)C)CC3)nc12` [III-449]: 3 nM. `Cc1cn(-c2cc(NC(=O)c3ccc(C)c(Nc4ncnc5cnc(N6CCC(F)(F)C6)nc45)c3)cc(C(F)(F)F)c2)cn1` [III-450] came in with an IC50 of 3 nM. The molecule `Cc1cn(-c2cc(NC(=O)c3ccc(C)c(Nc4ncnc5cnc(N6CC[C@H](F)C6)nc45)c3)cc(C(F)(F)F)c2)cn1` [III-454] yielded an IC50 of 4 nM. In the case of `Cc1ccc(C(=O)Nc2cc(N3CCN(CC(C)C)CC3)cc(C(F)(F)F)c2)cc1Nc1ncnc2cnc(N3CC[C@H](F)C3)nc12` [III-455] it was 8 nM. `Cc1ccc(C(=O)Nc2cc(N3CCN(C(C)C)CC3)cc(C(F)(F)F)c2)cc1Nc1ncnc2cnc(N3CC[C@H](F)C3)nc12` [III-456] yielded an IC50 of 3 nM. The same measure for `Cc1ccc(C(=O)Nc2cc(N3CCN(C)CC3)cc(C(F)(F)F)c2)cc1Nc1ncnc2cnc(N3CC[C@H](F)C3)nc12` [III-457]: 4 nM. In the case of `Cc1ccc(C(=O)Nc2cc(N3CCCN(C)CC3)cc(C(F)(F)F)c2)cc1Nc1ncnc2cnc(N3CC[C@H](F)C3)nc12` [III-458] it was 1 nM.

On to `Cc1ccc(C(=O)Nc2cc(CN3CCCC3)cc(C(F)(F)F)c2)cc1Nc1ncnc2cnc(N3CC[C@H](F)C3)nc12` [III-459], for which inhibition was half-maximal at 2 nM (IC50). The same measure for `Cc1ccc(C(=O)Nc2cc(N3CCN(CC(C)C)CC3)cc(C(F)(F)F)c2)cc1Nc1ncnc2cnc(N3CCOCC3)nc12` [III-460]: 4 nM; for `Cc1ccc(C(=O)Nc2cc(N3CCN(C(C)C)CC3)cc(C(F)(F)F)c2)cc1Nc1ncnc2cnc(N3CCOCC3)nc12` [III-461]: 2 nM; for `Cc1ccc(C(=O)Nc2cc(N3CCN(C)CC3)cc(C(F)(F)F)c2)cc1Nc1ncnc2cnc(N3CCOCC3)nc12` [III-462]: 1 nM. In the case of `Cc1ccc(C(=O)Nc2cc(N3CCCN(C)CC3)cc(C(F)(F)F)c2)cc1Nc1ncnc2cnc(N3CCOCC3)nc12` [III-463] it was 2 nM; in that of `COCCN(C)c1ncc2ncnc(Nc3cc(C(=O)Nc4cc(C(C)(C)C)nn4C)ccc3C)c2n1` [III-465], 2 nM; in that of `COCCN(C)c1ncc2ncnc(Nc3cc(C(=O)Nc4cccc(C(F)(F)F)c4)ccc3C)c2n1` [III-467], 2 nM. In the case of `COCCN(C)c1ncc2ncnc(Nc3cc(C(=O)Nc4cccc(C(C)(C)C)c4)ccc3C)c2n1` [III-468] it was under 1 nM; in that of `COCCN(C)c1ncc2ncnc(Nc3cc(C(=O)Nc4cc(N(C)CCN(C)C)cc(C(F)(F)F)c4)ccc3C)c2n1` [III-469], under 1 nM.

For `CCN1CCN(c2cc(NC(=O)c3ccc(C)c(Nc4ncnc5cnc(N(C)CCOC)nc45)c3)cc(C(F)(F)F)c2)CC1` [III-470], 2 nM corresponded to half-maximal inhibition (IC50).

`COCCN(C)c1ncc2ncnc(Nc3cc(C(=O)Nc4cc(C(C)(C)C)n[nH]4)ccc3C)c2n1` [III-471] came in with an IC50 of 4 nM.
